Like-named read-outs stand apart in the source and are kept apart here.
Legend:
Dose tolerance in mice = assay type: in vivo
Description: MS-0022 tolerance was tested by daily injections of 200 mg/kg MS-0022 for 5 days in 7–8 week old male C57BL mice. Animal were observed daily for outward signs of toxicity (weight loss, fur ruffling, hunched posture).

[1] = tested on: Hh pathway in Shh-L2 cells; test: Hh reporter assay in Shh-L2 cells; assay type: cell-based, mouse
Description: Shh-L2 cells were used as a Hh reporter cell line as described previously. Hh signaling was induced by Shh conditioned medium, 200 nM SAG (AH-Diagnostics) and ActOXS (a combination of 5 µM Hydroxycholesterol 20-alfa and 5 µM Hydroxycholesterol 22S (Sigma-Aldrich)). For Shh conditioned medium, Shh-PANC-1 cells were grown to confluence and switched to fresh medium. Shh conditioned medium was harvested after 48 hours, and was diluted to 50% in fresh DMEM before use. The clonal Shh-PANC-1 cell line was generated by stably transducing PANC-1 cells with virus containing medium from HEK293T cells that were transfected using a Virapower Lentiviral expression kit (Invitrogen). The vector was produced by removing GFP from a pLenti 6.2-vector, and inserting the mouse Shh cDNA sequence.
The calculations were performed with an online calculator using the formula: a exp (−bx) + c at the website; http://www.changbioscience.com/stat/ec50.html

[2] = tested on: GLI1 mRNA in SUIT-2 cells; test: Real time PCR of GLI1 mRNA in SUIT-2; assay type: cell-based, human; conditions: 48 hrs
Description: (§1) Cells were lysed for RNA extraction after 48 or 72 hours of treatment. Total RNA from cultured cells or tumor tissue was isolated using the GeneElute miniprep kit (Sigma-Aldritch) following the manufacturer^'s instructions. cDNA was synthesized from the isolated mRNA using the Retroscript kit (Ambion), and real-time PCR was carried out using the SYBR Green PCR master mix (Stratagene) according to the manufacturer^'s instructions with an Mx3000P cycler (Stratagene). The relative concentrations of cDNA present in each sample were calculated by the MxPro software (Stratagene), normalized for GAPDH (mRNA from cells) or GUS (mRNA from tumors). For real time PCR primer sequences see Table 6. For the tumor tissue real time PCR, previously described human and mouse specific primers against GUSB, PTCH1 and GLI1were used.

[3] = tested on: Gli1 mRNA expression in Sufu−/− MEF; test: Real time PCR of Gli1 mRNA in Sufu−/− MEF; assay type: cell-based, mouse; conditions: 10 µM, 72 hours
Description: as §1

PKCθ(h) = target: T1, PKCθ(h) (Homo sapiens, UniProt Q04759); test: Millipore kinaseprofiler diversity array; assay type: biochemical; conditions: 10 µM MS-0022
T1 construct: purchased Millipore (Upstate) KinaseProfiler
T1 sequence (Q04759 whole entry): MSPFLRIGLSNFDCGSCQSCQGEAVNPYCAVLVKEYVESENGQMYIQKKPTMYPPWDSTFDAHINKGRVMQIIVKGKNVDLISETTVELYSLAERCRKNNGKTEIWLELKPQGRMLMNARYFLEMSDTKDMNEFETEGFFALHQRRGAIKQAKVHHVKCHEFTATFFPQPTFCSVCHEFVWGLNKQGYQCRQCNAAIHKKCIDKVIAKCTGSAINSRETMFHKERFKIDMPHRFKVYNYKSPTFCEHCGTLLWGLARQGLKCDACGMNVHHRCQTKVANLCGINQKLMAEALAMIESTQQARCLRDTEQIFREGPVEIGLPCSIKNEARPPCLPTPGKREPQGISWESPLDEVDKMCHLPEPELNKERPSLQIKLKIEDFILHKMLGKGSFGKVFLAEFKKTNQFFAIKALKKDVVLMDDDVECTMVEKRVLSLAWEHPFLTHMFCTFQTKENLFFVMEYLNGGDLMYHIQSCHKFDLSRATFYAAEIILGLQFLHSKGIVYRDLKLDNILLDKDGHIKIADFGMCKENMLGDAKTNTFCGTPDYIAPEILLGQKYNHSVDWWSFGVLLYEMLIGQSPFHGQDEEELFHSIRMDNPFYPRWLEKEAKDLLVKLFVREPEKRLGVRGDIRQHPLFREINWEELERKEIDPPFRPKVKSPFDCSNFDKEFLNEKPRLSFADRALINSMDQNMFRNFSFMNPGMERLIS
Description: (§2) Table 4 Kinase activity in presence of 10 µM MS-0022 in a kinaseprofiler diversity array. | column: Activity %

EGFR(h) = target: T2, EGFR(h) (Homo sapiens, UniProt P00533); test: Millipore kinaseprofiler diversity array; assay type: biochemical; conditions: 10 µM MS-0022
T2 construct: purchased Millipore (Upstate) KinaseProfiler
T2 sequence (P00533 25-1210): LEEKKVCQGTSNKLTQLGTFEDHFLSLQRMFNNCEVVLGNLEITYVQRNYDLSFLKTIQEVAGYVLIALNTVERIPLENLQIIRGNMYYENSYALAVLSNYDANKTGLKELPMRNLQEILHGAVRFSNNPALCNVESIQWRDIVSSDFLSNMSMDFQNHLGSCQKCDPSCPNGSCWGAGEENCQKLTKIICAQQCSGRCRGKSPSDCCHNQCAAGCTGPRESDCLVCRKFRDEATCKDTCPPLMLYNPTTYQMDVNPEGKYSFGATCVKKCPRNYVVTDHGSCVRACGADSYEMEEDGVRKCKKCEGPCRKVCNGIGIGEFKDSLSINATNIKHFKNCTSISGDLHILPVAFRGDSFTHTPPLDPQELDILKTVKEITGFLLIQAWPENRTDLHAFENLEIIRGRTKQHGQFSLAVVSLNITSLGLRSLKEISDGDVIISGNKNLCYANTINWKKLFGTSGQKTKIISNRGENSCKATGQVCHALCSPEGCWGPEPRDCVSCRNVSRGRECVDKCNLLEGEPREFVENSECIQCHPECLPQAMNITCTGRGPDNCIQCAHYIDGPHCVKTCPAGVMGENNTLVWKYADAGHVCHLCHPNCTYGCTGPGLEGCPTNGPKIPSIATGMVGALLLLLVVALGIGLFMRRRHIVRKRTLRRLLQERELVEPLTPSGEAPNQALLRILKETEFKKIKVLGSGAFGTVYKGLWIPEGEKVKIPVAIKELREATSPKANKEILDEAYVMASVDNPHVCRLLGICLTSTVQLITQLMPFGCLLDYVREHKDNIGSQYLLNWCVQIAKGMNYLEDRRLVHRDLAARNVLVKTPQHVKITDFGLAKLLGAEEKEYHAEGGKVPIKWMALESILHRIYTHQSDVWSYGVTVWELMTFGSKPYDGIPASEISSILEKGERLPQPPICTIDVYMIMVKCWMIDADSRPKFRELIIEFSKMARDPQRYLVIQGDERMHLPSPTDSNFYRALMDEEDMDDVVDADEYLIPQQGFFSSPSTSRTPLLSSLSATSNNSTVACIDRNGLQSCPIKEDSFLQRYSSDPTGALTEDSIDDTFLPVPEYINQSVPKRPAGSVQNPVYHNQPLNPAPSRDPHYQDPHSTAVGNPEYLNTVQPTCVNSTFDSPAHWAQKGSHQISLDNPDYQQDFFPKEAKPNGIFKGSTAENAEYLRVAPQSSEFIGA
Description: as §2

THLE-2 cells = test: Passage growth assay, THLE-2; assay type: cell-based; conditions: 5 µM
Description: 20,000 cells were seeded per well in 6 well plates (triplicates) with DMSO or 5 µM MS-0022. Treatment medium was changed on day 3–5, and after 5–7 days the cells were trypsinized, re-suspended in medium and counted, before reseeding cells at 20,000/well for a subsequent passage. The average growth of MS-0022 treated cells was calculated as a percentage of the growth of the DMSO control at the end of each passage. Graphs display average of percent growth with standard deviation bars (n = 3).

[4] = Pharmacokinetics in mouse plasma; assay type: in vivo; conditions: 5 mg/kg; for Cmax / AUC(0-inf) / AUC(0-t) / half-life / k el: mouse plasma; for concentration at 5 min / concentration at 15 min / concentration at 30 min / concentration at 60 min / concentration at 120 min / concentration at 240 min: read-out: blood concentration
Description: For pharmacokinetic (PK) analysis, 5 mg/kg MS-0022 was given by IV, PO and IP administration to 7–8 week old male C57BL mice (mouse musculus), and blood was collected after 5, 15, 30, 60, 120, and 240 min, with n = 3. Animals were sacrificed and blood samples (∼0.5 mL each) were collected from the abdominal aorta into EDTA-containing tubes, centrifuged (2–8°C for ∼10 minutes at ∼10000 xg) and plasma harvested into single tubes for each animal and frozen (∼−70°C). Blood samples were analyzed by ChemDiv^'s bioanalytical department. The maximum concentration (Cmax), total drug exposure (the area under the curve to the last quantifiable concentration (AUClast) and as the AUClast value extrapolated to infinity (AUCinf), calculated as AUCinf = AUClast+C(t)last/Kel, where C(t)last is the last measurable concentration), half-life (T1/2) calculated as ln(2)/Kel and Kel calculated as the slope of the terminal linear portion of the concentration/time curve. The WinNonlin Professional 5.2 software (Pharsight Corp.) was used for the calculation of the PK parameters.

With `Cc1cccn2cc(-c3ccc(NC(=O)c4ccccc4Br)cc3)nc12` [MS-0022, 2-bromo-N-(4-(8-methylimidazo[1,2-a]pyridin-2-yl)phenyl)benzamide] the “outward signs of toxicity or other side effects” value (Dose tolerance in mice; 200 mg/kg daily for 5 days) was “did not show any outward signs of toxicity”, the “alterations in body weight” value (Dose tolerance in mice; daily IP injections of 200 mg/kg for 5 days) was “No statistically significant alterations” and the MTD at 5 days (Dose tolerance in mice; male, C57BL, mouse, in vivo, intraperitoneal, 200 mg/kg, mice) was over 200 mg/kg. For the same compound, the “Hh pathway induction in Shh, SAG and ActOXS induced Shh-L2 cells” value ([1]; 5 µM, 48 hours, Shh, 200 nM SAG, ActOxs (5 µM+5 µM)) was “blocked Hh pathway induction”, the IC50 ([1]; Mus musculus, pathway inhibition in Shh induced Shh-L2 cells, 48 hours treatment) was 100 nM and the “GLI1 mRNA levels, SUIT-2” value [2] was “reduced GLI1 mRNA levels”. The “reduction of relative Gli1 mRNA levels in Sufu−/− MEFs” value [3] was 50%, the activity at 10 µM (PKCθ(h)) was 103% and the activity at 10 µM (EGFR(h)) was 84%. The “growth by the second passage, THLE-2” value (THLE-2 cells) was “not affected”, the Cmax ([4]; male, C57BL, mouse, plasma, ip, IP, read-out: Cmax) was 378 ng/mL and the Cmax ([4]; male, C57BL, mouse, plasma, iv, IV, read-out: Cmax) was 934 ng/mL. For the same compound, the Cmax ([4]; male, C57BL, mouse, plasma, po, PO, read-out: Cmax) was 912 ng/mL, the concentration at 5 min ([4]; male, C57BL, mouse, plasma, IP) was 30 ng/mL and the concentration at 15 min ([4]; male, C57BL, mouse, plasma, IP) was 261 ng/mL. The concentration at 30 min ([4]; male, C57BL, mouse, plasma, IP) was 378 ng/mL, the concentration at 60 min ([4]; male, C57BL, mouse, plasma, IP) was 158 ng/mL and the concentration at 120 min ([4]; male, C57BL, mouse, plasma, IP) was 56 ng/mL. For the same compound, the concentration at 240 min ([4]; male, C57BL, mouse, plasma, IP) was 15 ng/mL, the concentration at 5 min ([4]; male, C57BL, mouse, plasma, IV) was 934 ng/mL and the concentration at 15 min ([4]; male, C57BL, mouse, plasma, IV) was 712 ng/mL. The concentration at 30 min ([4]; male, C57BL, mouse, plasma, IV) was 626 ng/mL, the concentration at 60 min ([4]; male, C57BL, mouse, plasma, IV) was 620 ng/mL and the concentration at 120 min ([4]; male, C57BL, mouse, plasma, IV) was 253 ng/mL. It also gave a concentration at 240 min ([4]; male, C57BL, mouse, plasma, IV) of 73 ng/mL, a concentration at 5 min ([4]; male, C57BL, mouse, plasma, PO) of 468 ng/mL and a concentration at 15 min ([4]; male, C57BL, mouse, plasma, PO) of 912 ng/mL. For the same compound, the concentration at 30 min ([4]; male, C57BL, mouse, plasma, PO) was 461 ng/mL, the concentration at 60 min ([4]; male, C57BL, mouse, plasma, PO) was 437 ng/mL and the concentration at 120 min ([4]; male, C57BL, mouse, plasma, PO) was 180 ng/mL. For the same compound, the concentration at 240 min ([4]; male, C57BL, mouse, plasma, PO) was 51 ng/mL, the bioavailability ([4]; male, C57BL, plasma, po, mouse, read-out: Per oral bioavailability) was 98% and the AUC(0-inf) ([4]; male, C57BL, IP) was 437 ng·h/mL. For the same compound, the AUC(0-t) ([4]; male, C57BL, IP) was 417 ng·h/mL, the half-life ([4]; male, C57BL, IP) was 54.8 min and the k el ([4]; male, C57BL, IP) was 0.00021 s⁻¹. The AUC(0-inf) ([4]; male, C57BL, IV) was 1560 ng·h/mL, the AUC(0-t) ([4]; male, C57BL, IV) was 1460 ng·h/mL and the half-life ([4]; male, C57BL, IV) was 59.3 min. It also gave a k el ([4]; male, C57BL, IV) of 0.000195 s⁻¹, an AUC(0-inf) ([4]; male, C57BL, PO) of 1140 ng·h/mL and an AUC(0-t) ([4]; male, C57BL, PO) of 1070 ng·h/mL. It also gave a half-life ([4]; male, C57BL, PO) of 59.1 min, a k el ([4]; male, C57BL, PO) of 0.000195 s⁻¹ and a Cmax ([4]; IP) of 377.7 ng/mL. The Cmax ([4]; IV) was 934.3 ng/mL.

Source: PMC3115942 (PLoS ONE, 2011)
